# Like-named read-outs stand apart in the source and are kept apart here. Marks after values point to notes of the source that are not given here.
# Assays:
# MES-induced seizures [1] = test: Maximal electroshock test (MES), rats; format: in vivo; conditions: Rat PO; for MES, animals protected/tested: 30 mg/kg
# Procedure: (§1) The benzodiazepine derivative compounds selective for GABAa receptor subunits were tested for the ability to suppress seizures in several standard rat and mouse models of epilepsy. […] The standard models incorporated into anticonvulsant screening include the maximal electroshock test (MES), the subcutaneous Metrazol test (scMet), and evaluations of toxicity (TOX). The data for each condition is presented as a ratio of either the number of animals protected or toxic (loss of locomotor activity) over the number of animals tested at a given time point and dose.
# The MES is a model for generalized tonic-clonic seizures and provides an indication of a compound's ability to prevent seizure spread when all neuronal circuits in the brain are maximally active. These seizures are highly reproducible and are electrophysiologically consistent with human seizures. For all tests based on MES convulsions, 60 Hz of alternating current (50 mA in mice, 150 in rats) is delivered for by corneal electrodes which have been primed with an electrolyte solution containing an anesthetic agent (0.5% tetracaine HCL). For Test 1, mice are tested at various intervals following doses of 30, 100 and 300 mg/kg of test compound given by ip injection of a volume of 0.01 mL/g. In Test 2, rats are tested after a dose of 30 mg/kg (po) in a volume of 0.04 mL/g. Test 8 uses varying doses administered via i.p. injection, again in a volume of 0.04 ml/g. […] In Antiepileptic Drugs, Levy, R. H. M., Meldrum, B. S., Eds.; Raven Press: New York, pp 99-110, 1995b.).
# 6 Hz psychomotor seizure = test: Minimal clonic seizure (6 Hz) test; format: in vivo; conditions: Mice IP; for ED50: Mus musculus, ip
# Text: Like the maximal electroshock (MES) test, the minimal clonic seizure (6 Hz) test is used to assess a compound's efficacy against electrically-induced seizures but uses a lower frequency (6 Hz) and longer duration of stimulation (3 s). Test compounds are pre-administered to mice via ip injection. […] Untreated mice will display seizures characterized by a minimal clonic phase followed by stereotyped, automatistic behaviors described originally as being similar to the aura of human subjects with partial seizures. Animals not displaying this behavior are considered protected (Table 10).
# kindled motor seizure = test: Hippocampus kindling screen; format: in vivo; conditions: Rats IP, 3 mg/kg after 4 h
# Text: The hippocampus kindling screen is a useful adjunct to the traditional MES and scMet tests for identification of a substance potential utility for treating complex partial seizures. […] No toxic effects were observed as indicated by the lack of motor impairment on the rats tested.
# [2] = Toxicity (TOX), minimal motor deficit, rats; format: in vivo; conditions: in vivo; Rat IP
# Procedure: as §1
# (§2) To assess a compound's undesirable side effects (toxicity), animals are monitored for overt signs of impaired neurological or muscular function. […] When a mouse is placed on a rod that rotates at a speed of 6 rpm, the animal can maintain its equilibrium for long periods of time. The animal is considered toxic if it falls off this rotating rod three times during a 1-min period. In rats, minimal motor deficit is indicated by ataxia, which is manifested by an abnormal, uncoordinated gait. Rats used for evaluating toxicity are examined before the test drug is administered, since individual animals may have peculiarities in gait, equilibrium, placing response, etc., which might be attributed erroneously to the test substance.
# [3] = tested on: minimal motor deficit (ataxia, abnormal gait); test: Toxicity (TOX), minimal motor deficit, rats; format: in vivo; conditions: Rat PO; for Tox, animals toxic/tested: 50 mg/kg
# Procedure: as §1, §2
# MES-induced seizures [4] = test: Maximal electroshock test (MES), mice; format: in vivo
# [5] = tested on: Metrazol-induced clonic seizures; test: Subcutaneous Metrazol test (scMet), mice; format: in vivo
# [6] = tested on: Metrazol-induced clonic seizures; test: Subcutaneous Metrazol test (scMet), rats; format: in vivo
# Procedure: as §1
# Subcutaneous injection of the convulsant Metrazol produces clonic seizures in laboratory animals. […] Animals are pretreated with various doses of the test compound (in a similar manner to the MES test, although a dose of 50 mg/kg (po) is the standard for Test 2 scMet). At the previously determined TPE of the test compound, the dose of Metrazol which will induce convulsions in 97% of animals (CD97: 85 mg/kg mice) is injected into a loose fold of skin in the midline of the neck. […] An episode of clonic spasms, approximately 3-5 seconds, of the fore and/or hindlimbs, jaws, or vibrissae is taken as the endpoint.
# [7] = tested on: minimal muscular or neurological impairment; test: Toxicity (TOX), rotorod procedure, mice; format: in vivo
# [8] = tested on: minimal motor deficit (ataxia, abnormal gait); conditions: Rat PO; from Antiepileptic Drugs, 5th ed., Levy et al., 2002; cited from earlier work
# MES-induced seizures [9] = conditions: Mice IP; from Antiepileptic Drugs, 5th ed., Levy et al., 2002; cited from earlier work
# MES-induced seizures [10] = conditions: Rat PO; from Antiepileptic Drugs, 5th ed., Levy et al., 2002; cited from earlier work
# [11] = tested on: minimal muscular or neurological impairment; conditions: Mice IP; from Antiepileptic Drugs, 5th ed., Levy et al., 2002; cited from earlier work
# [12] = tested on: Metrazol-induced clonic seizures; conditions: Rat PO; from Antiepileptic Drugs, 5th ed., Levy et al., 2002; cited from earlier work
# [13] = tested on: Metrazol-induced clonic seizures; conditions: Mice IP; from Antiepileptic Drugs, 5th ed., Levy et al., 2002; cited from earlier work
# [14] = Toxicity (TOX), rotorod procedure, mice; format: in vivo; conditions: mouse, in vivo; IP route in mice (footnote of Table 10); read-out: TD50
# GABAA/α5 receptors = GABAA/α5 receptors (Homo sapiens, UniProt P18507+P31644); conditions: Huang et al., J. Med. Chem. 2000, 43, 71-95; cited from earlier work
# GABAA/α3 = GABAA/α3 (Homo sapiens, UniProt P18507+P34903); conditions: Huang et al., J. Med. Chem. 2000, 43, 71-95; cited from earlier work
# [15] = target: T1, GABAA/α3 (α3β3γ2 GABAA receptors) (Homo sapiens, UniProt P18507+P34903); test: Competitive binding assay, [3H]flunitrazepam; conditions: Binding Affinity at GABAA/α3, αxβ3γ2, [3H]flunitrazepam competition
# T1 construct: expressed in transfected cells
# How it was run: (§3)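 Bound ligand was collected on 0.3% polyethyleneimine-pretreated GF/C filters with three ice-cold washes and quantified by liquid scintillation counting; membrane protein was determined against a BSA standard.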
# [16] = target: T2, GABAA/α5 (α5β3γ2 GABAA receptors) (Homo sapiens, UniProt P18507+P31644); test: Competitive binding assay, [3H]flunitrazepam; conditions: Binding Affinity at GABAA/α5, αxβ3γ2, [3H]flunitrazepam competition
# T2 construct: expressed in transfected cells
# How it was run: as §3
# [17] = target: T3, GABAA/α4 (α4β3γ2 GABAA receptors) (Homo sapiens, UniProt P18507+P48169); test: Competitive binding assay, [3H]flunitrazepam
# T3 construct: expressed in transfected cells
# [18] = target: T4, GABAA/α1 (α1β3γ2 GABAA receptors) (Homo sapiens, UniProt P14867+P18507); test: Competitive binding assay, [3H]flunitrazepam; conditions: αxβ3γ2, [3H]flunitrazepam competition; read-out: Binding Affinity at GABAA/α1
# T4 construct: expressed in transfected cells
# How it was run: as §3
# [19] = target: T5, GABAA/α6 (α6β3γ2 GABAA receptors) (Homo sapiens, UniProt P18507+Q16445); test: Competitive binding assay, [3H]flunitrazepam
# T5 construct: expressed in transfected cells
# How it was run: as §3
# [20] = target: T6, GABAA/α2 (α2β3γ2 GABAA receptors) (Homo sapiens, UniProt P18507+P47869); test: Competitive binding assay, [3H]flunitrazepam; conditions: αxβ3γ2, [3H]flunitrazepam competition; read-out: Binding Affinity at GABAA/α2
# T6 construct: expressed in transfected cells
# How it was run: as §3
# GABAA/α1 receptors = GABAA/α1 receptors (Homo sapiens, UniProt P14867+P18507); conditions: Huang et al., J. Med. Chem. 2000, 43, 71-95; cited from earlier work
# GABAA/α2 = GABAA/α2 (Homo sapiens, UniProt P18507+P47869); conditions: Huang et al., J. Med. Chem. 2000, 43, 71-95; cited from earlier work
# [21] = 32 mA, read-out: ED50 32 mA (6 Hz test)
# [22] = Mice, 50 mg/kg PO (Mice IP), 0.5 hr
# [23] = Mice, 50 mg/kg PO (Mice IP), 4.0 hr
structure (smiles),measurement,setting,value
"C#Cc1ccc2c(c1)C(c1ccccc1Cl)=NCc1nnc(C)n1-2 [XLi-JY-DMH (23), 8-Acetyleno-5-(2′-chlorophenyl)-1-methyl-4H-s-triazolo-[4,3-a]-1,4-benzodiazepine]",ED50,MES-induced seizures [1],> 150 mg/kg
same,"MES, animals protected/tested",MES-induced seizures [1]; 0.5 h,0/4
same,"MES, animals protected/tested",MES-induced seizures [1]; 1.0 h,0/4
same,"MES, animals protected/tested",MES-induced seizures [1]; 2.0 h,0/4
same,"MES, animals protected/tested",MES-induced seizures [1]; 4.0 h,0/4
same,"MES, animals protected/tested",MES-induced seizures [1]; […],0/4
same,ED50,6 Hz psychomotor seizure; [21],0.17 mg/kg
same,ED50,"6 Hz psychomotor seizure; 44 mA, read-out: ED50 44 mA (6 Hz test)",0.4 mg/kg
same,"Tox, animals toxic/tested",kindled motor seizure,0/2^c
same,"Afterdischarge Duration, Drug (Low-High)",kindled motor seizure; pre-drug 29-41,29- s
same,TD50,[2],2.08 mg/kg
same,"Tox, animals toxic/tested",[3]; 0.5 h,0/4
same,"Tox, animals toxic/tested",[3]; 1.0 h,0/4
same,"Tox, animals toxic/tested",[3]; 2.0 h,0/4
same,"Tox, animals toxic/tested",[3]; 4.0 h,0/4
same,"Tox, animals toxic/tested",[3]; […],0/4
same,TD50 TOX,[3]; abnormal gait,166.25 mg/kg
same,"MES, animals protected/tested","MES-induced seizures [4]; Mice IP, 100 mg/kg, 0.5 hr",3/3
same,"MES, animals protected/tested","MES-induced seizures [4]; Mice IP, 100 mg/kg, 4.0 hr",3/3
same,"MES, animals protected/tested",MES-induced seizures [4]; [22],0/4
same,"MES, animals protected/tested",MES-induced seizures [4]; [23],0/4
same,ED50,"MES-induced seizures [4]; Mus musculus, Mice IP",> 6 mg/kg
same,mice protected against scMet induced seizures,"[5]; Mice IP, 100 mg/kg, 0.5 hr",100%
same,"scMet, animals protected/tested","[5]; Mice IP, 100 mg/kg, 0.5 hr",1/1
same,"scMet, animals protected/tested","[5]; Mice IP, 100 mg/kg, 4.0 hr",1/1
same,"scMet, animals protected/tested",[5]; [22],3/4
same,"scMet, animals protected/tested",[5]; [23],2/4
same,ED50,"[5]; Mus musculus, Mice IP",1.03 mg/kg
same,ED50,[6]; Rat IP,4.2 mg/kg
same,ED50,[6]; Rat PO,1.58 mg/kg
same,"scMet, animals protected/tested","[6]; Rat PO, 15 mg/kg, 0.5 h",3/4^c
same,"scMet, animals protected/tested","[6]; Rat PO, 15 mg/kg, 1.0 h",2/4^c
same,"scMet, animals protected/tested","[6]; Rat PO, 15 mg/kg, 2.0 h",4/4^c
same,"scMet, animals protected/tested","[6]; Rat PO, 15 mg/kg, 4.0 h",2/4^c
same,"scMet, animals protected/tested","[6]; Rat PO, 15 mg/kg, […]",3/4^c
same,"scMet, animals protected/tested","[6]; Rat PO, 50 mg/kg, 0.5 h",4/4
same,"scMet, animals protected/tested","[6]; Rat PO, 50 mg/kg, 1.0 h",4/4
same,"scMet, animals protected/tested","[6]; Rat PO, 50 mg/kg, 2.0 h",4/4
same,"scMet, animals protected/tested","[6]; Rat PO, 50 mg/kg, 4.0 h",3/4
same,"scMet, animals protected/tested","[6]; Rat PO, 50 mg/kg, […]",4/4
same,"TOX (Rotorod Test), animals toxic/tested","[7]; Mice IP, 100 mg/kg, 0.5 hr",6/8
same,"TOX (Rotorod Test), animals toxic/tested","[7]; Mice IP, 100 mg/kg, 4.0 hr",2/4
same,TD50 TOX,"[7]; Mice IP, rotorod",2.875 mg/kg
same,"TOX (Rotorod Test), animals toxic/tested",[7]; [22],0/4
same,"TOX (Rotorod Test), animals toxic/tested",[7]; [23],0/4
O=C1CN=C(c2ccccc2Cl)c2cc([N+](=O)[O-])ccc2N1 [Clonazepan],TD50 TOX,[8],2.38 mg/kg
same,ED50 MES,MES-induced seizures [9],25.6 mg/kg
same,ED50 32 mA (6 Hz test),6 Hz psychomotor seizure; 32 mA,0.04 mg/kg
same,ED50 MES,MES-induced seizures [10],7.86 mg/kg
same,TD50 TOX,[11],0.26 mg/kg
same,ED50 scMet,[12],0.61 mg/kg
same,ED50 scMet,[13],0.02 mg/kg
O=C1NC(=O)C(c2ccccc2)(c2ccccc2)N1 [Phenytoin],TD50 TOX,[8],>1000 mg/kg
same,ED50 MES,MES-induced seizures [9],5.64 mg/kg
same,ED50,6 Hz psychomotor seizure; [21],> 40 mg/kg
same,ED50 MES,MES-induced seizures [10],28.1 mg/kg
same,ED50 scMet,[12],>500 mg/kg
same,ED50 scMet,[13],>50 mg/kg
same,TD50,[14],51 mg/kg
"C#Cc1ccc2c(c1)C(c1ccccc1)=NCC(=O)N2C [QH-II-066, 1-Methyl-7-acetyleno-5-phenyl-1,3-dihydro-benzo[e]-1,4-diazepin-2-one]",Ki,GABAA/α5 receptors,< 10 nM
same,Ki,GABAA/α3,< 50 nM
same,Ki,[15],47.4 nM
same,Ki,[16],6.8 nM
same,Ki,[17],> 1000 nM
same,Ki,[18],76.3 nM
same,Ki,[19],> 1000 nM
same,Ki,[20],42.1 nM
same,Ki,GABAA/α1 receptors,> 70 nM
same,Ki,GABAA/α2,< 50 nM

# — patent US20100261711A1, “SELECTIVE ANTICONVULSANT AGENTS AND THEIR USES” (WiSys Technology Foundation, priority 2009, published 2010)
